Data from the METLIN SMRT retention time set (Domingo-Almenara et al. 2019).

Test: gradient 5% acetonitrile 3 min, to 50% in 2 min, to 85% in 15 min, held 3 min, 100 µL/min
Conditions: column: Zorbax Extend-C18 2.1 x 50 mm; eluents: water / acetonitrile, 0.1% formic acid
Outline: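 The system's dead and dwell volumes were 40 μL and 900 μL, with a Zorbax Extend-C18 column (2.1 × 50 mm, 1.8 μm) run at 100 μL/min in water and acetonitrile containing 0.1% formic acid each. Pure standards were analyzed in mixtures of ~100 molecules by HPLC–quadrupole time-of-flight mass spectrometry in positive and negative ionization mode. Retention time was assigned from computationally picked, manually inspected adduct peaks.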

SMILES: Cc1nc2cc(N3CC(C(=O)Nc4ccc(Cl)cc4C)CC3=O)ccc2o1 (stereo not drawn)
- RP-LC retention time: 781 s

SMILES: COc1ccccc1CNC(=O)c1c(O)c2cccnc2[nH]c1=O
- RP-LC retention time: 933 s

SMILES: CC(C)c1noc(-c2ccnc(-n3cnc(C(=O)N4CCOCC4)c3)c2)n1
- RP-LC retention time: 748 s

SMILES: Cc1cnc(C(=O)N2CCC(N3C(=O)C(OCC4CC4)C34CCOCC4)CC2)cn1 (stereo not drawn)
- RP-LC retention time: 618 s

SMILES: O=C(NCc1ccc(F)cc1)N1CCC(c2noc(-c3cnccn3)n2)C1 (stereo not drawn)
- RP-LC retention time: 705 s

SMILES: CC1CCN(C(=O)C2CCCN(C(=O)c3nnc(C(=O)Nc4ccc(F)cc4)s3)C2)CC1 (stereo not drawn)
- RP-LC retention time: 661 s

SMILES: C=CCc1ccccc1OCCn1c(CN(C)C(=O)c2ccco2)nc2ccccc21
- RP-LC retention time: 702 s

SMILES: CC1CCCN(CC2CCN(S(=O)(=O)Cc3ccc(Cl)cc3)CC2)C1 (stereo not drawn)
- RP-LC retention time: 690 s

SMILES: O=C(NCc1ccccn1)c1ccc2c(c1)N(C(=O)c1ccc(F)cc1)CC2
- RP-LC retention time: 653 s

SMILES: COc1ccc(CN2C(=O)C3(CCOCC3)CC2c2nnnn2C(C)(C)C)cc1 (stereo not drawn)
- RP-LC retention time: 760 s

SMILES: CCOc1cc(=O)n2c(c1C(=O)N1CCOCC1)CCCCC2
- RP-LC retention time: 601 s

SMILES: CCOc1ccc(C2=NC3(CCN(C(C)C)CC3)NC(c3cc(Br)ccc3O)C2)cc1 (stereo not drawn)
- RP-LC retention time: 654 s

SMILES: COc1ccc(CNC(=O)Nc2ccc(-c3nc(-c4cc(C)ccc4C)co3)cc2)cc1
- RP-LC retention time: 1200 s

SMILES: CC1Cc2ccccc2N1C(=O)Cc1cc(-c2ccc(F)cc2)on1 (stereo not drawn)
- RP-LC retention time: 1000 s

SMILES: c1cc(-c2noc(-c3n[nH]c4c3CCCC4)n2)cc(-c2ccn[nH]2)c1
- RP-LC retention time: 836 s

SMILES: CCC1CCCCN1C(=O)c1cnc2nc(C)ccc2c1Nc1ccccc1OC (stereo not drawn)
- RP-LC retention time: 661 s

SMILES: COc1cc(CN2CCC3(CCC3O)CC2)ccc1OC(C)C (stereo not drawn)
- RP-LC retention time: 614 s

SMILES: O=C(NC1CC1)[C@@H]1C[C@H](Oc2ccccc2)CN1C(=O)c1n[nH]c2ccccc12
- RP-LC retention time: 739 s

SMILES: Cc1ccc(NC(=O)N2CCC(c3cc(N)on3)CC2)cc1
- RP-LC retention time: 686 s

SMILES: CC1(C(=O)NCc2ccc(F)cc2)Cn2cnc(C(=O)NCc3ccccc3F)c2C(=O)N1C1CC1 (stereo not drawn)
- RP-LC retention time: 751 s

SMILES: Cc1nn(-c2ccccc2)c(C)c1S(=O)(=O)N1CCC(C(=O)NCCN2CCCCCC2)CC1
- RP-LC retention time: 672 s

SMILES: COc1cc(=O)c(C(=O)NC(C)C)nn1-c1ccc(F)cc1
- RP-LC retention time: 686 s

SMILES: Cc1ccccc1OCc1nc(CCN(C)C(=O)CC2CCCC2)no1
- RP-LC retention time: 1020 s

SMILES: CCN1CCN(CCCNC(=O)Cn2cnc3nc4c(cc3c2=O)CCCC4)CC1
- RP-LC retention time: 554 s

SMILES: COc1ccc(NC(=O)c2cnc(N3CCN(c4ccccc4F)CC3)nc2N)cc1
- RP-LC retention time: 684 s

SMILES: Cc1ccc2cc(CCC(=O)NCCCN3CCc4ccccc4C3)c(=O)[nH]c2c1
- RP-LC retention time: 614 s

SMILES: CCN(CC)C(=O)c1ccc2c(c1)N(CC(=O)NCc1ccccn1)C(=O)CO2
- RP-LC retention time: 594 s

SMILES: O=C(NCC1(N2CCOCC2)CCOC1)Nc1cc(Cl)cc(Cl)c1 (stereo not drawn)
- RP-LC retention time: 657 s

SMILES: Cc1ccc(NC(=O)Cn2cnc3nc(-c4cccnc4)ncc3c2=O)cc1F
- RP-LC retention time: 656 s

SMILES: O=S1(=O)N(Cc2cccc(F)c2)CCCN1Cc1ccccc1Cl
- RP-LC retention time: 1180 s

SMILES: CC(=O)N1CCc2cc(N3CC(C(=O)NCc4cccc(F)c4)CC3=O)ccc21 (stereo not drawn)
- RP-LC retention time: 741 s

SMILES: Cc1cnc(C(=O)N2CCOCCNC(=O)[C@@H]3CCC[C@@H]32)cn1
- RP-LC retention time: 599 s

SMILES: CN1CCN(C(=O)C2CCN(S(=O)(=O)c3cc4c(cc3Cl)NC(=O)CO4)CC2)CC1
- RP-LC retention time: 580 s

SMILES: CCCCNC(=O)Cn1c(=O)c2cnc(-c3ccccc3)nc2n(CC)c1=O
- RP-LC retention time: 937 s

SMILES: C[n+]1ccc(Nc2ccc(NC(=O)c3ccc(Nc4cc[n+](C)c5ccc([N+](=O)[O-])cc45)cc3[N+](=O)[O-])cc2)cc1
- RP-LC retention time: 1080 s

SMILES: O=S(=O)(Nc1cccc(-c2cn3ccccc3n2)c1)c1ccc(Br)cc1
- RP-LC retention time: 673 s

SMILES: O=C1CCCc2cc(S(=O)(=O)N3CCC(C(=O)NC4CCCC4)CC3)ccc2N1
- RP-LC retention time: 761 s

SMILES: COc1ccccc1NC(=O)N1CCC(CNC(=O)C(=O)Nc2cccnc2)CC1
- RP-LC retention time: 591 s

SMILES: CCOC(=O)C1=C(CN2CCC(Cc3ccccc3)CC2)NC(=O)NC1c1ccco1 (stereo not drawn)
- RP-LC retention time: 708 s

SMILES: O=C(c1ccc(OCC2CCCN2C(=O)c2cccs2)cc1)N1CCCC1 (stereo not drawn)
- RP-LC retention time: 815 s

SMILES: COCCNc1oc(-c2ccc([N+](=O)[O-])cc2)nc1C#N
- RP-LC retention time: 766 s

SMILES: COc1ccc(-c2nc(-c3cccc(-c4ccn[nH]4)c3)no2)cc1
- RP-LC retention time: 1000 s

SMILES: S=C1NCCN1c1ccccc1Cl
- RP-LC retention time: 702 s

SMILES: O=C(c1ccoc1)N1CCCC(OCc2nc(C3CC3)no2)C1 (stereo not drawn)
- RP-LC retention time: 742 s

SMILES: COc1ccc(OC)c(S(=O)(=O)N2CC(c3nc(-c4ccsc4)nn3C)C2)c1
- RP-LC retention time: 816 s

SMILES: COc1ccc(-c2nc(Cn3ccn4nc(-c5ccccc5)cc4c3=O)c(C)o2)cc1
- RP-LC retention time: 1100 s

SMILES: O=C(Cn1c(=O)c2cc(C3CC3)nn2c2ncccc21)NCc1cccs1
- RP-LC retention time: 711 s

SMILES: O=C(OCc1nc2ccccc2s1)c1ccc2c(c1)OCCO2
- RP-LC retention time: 953 s

SMILES: Cc1ccc(S(=O)(=O)NCCc2cn(CC(C)C)c3ncccc23)cc1
- RP-LC retention time: 921 s

SMILES: CN1CCN(C(=O)C2CCCN(c3ncnc4c3nc3n4CCCCC3)C2)CC1 (stereo not drawn)
- RP-LC retention time: 570 s

SMILES: COc1ccccc1NC(=O)Cn1cccc1-c1nnc(C2CCC2)o1
- RP-LC retention time: 942 s

SMILES: CCOc1ccc(-c2ccc(=O)n(Cc3nc(-c4ccc(CC)cc4)no3)n2)cc1
- RP-LC retention time: 1230 s

SMILES: Cc1ccc(CNC(=O)C2(C)CCCN(C(=O)Nc3ccc(F)c(Cl)c3)C2)cc1 (stereo not drawn)
- RP-LC retention time: 1030 s

SMILES: CCCC(=O)Nc1nc2ccc(CCC(=O)Nc3ccc(CC)cc3)cc2s1
- RP-LC retention time: 952 s

SMILES: Cc1noc(CNC(=O)C2CCN(C(=O)C(C)(C)Oc3ccc(Cl)cc3)CC2)n1
- RP-LC retention time: 772 s

SMILES: O=C(NCCc1ccccc1)c1cn2c3c(ccc(Cl)c3c1=O)OCC2
- RP-LC retention time: 880 s

SMILES: CCOC(=O)c1cn(Cc2ccccc2F)c2nc(C)ccc2c1=O
- RP-LC retention time: 880 s

SMILES: Cc1ccc(NC(=O)Nc2ccc3nnc(C)n3c2)cc1
- RP-LC retention time: 673 s

SMILES: CCn1cc(-c2nc(C(=O)Nc3cc(OC)cc(OC)c3)cs2)c2cccnc21
- RP-LC retention time: 1030 s

SMILES: CC[C@H](Nc1ncnc2nc[nH]c12)c1nc2cccc(F)c2c(=O)n1-c1ccccc1
- RP-LC retention time: 714 s

SMILES: CCOc1cccc(Cn2c(=O)c3sccc3n(Cc3nc(-c4ccccc4C)no3)c2=O)c1
- RP-LC retention time: 1190 s

SMILES: COc1cccc(N2CCN(C(=O)C3CCCN(c4ncnc5c4nc4n5CCCCC4)C3)CC2)c1 (stereo not drawn)
- RP-LC retention time: 627 s

SMILES: CCc1nn2c(CNC(=O)c3ccc(OC)c(F)c3)c(-c3ccccc3)nc2s1
- RP-LC retention time: 912 s

SMILES: Cc1ccc(-c2noc(Cn3ncn4nc(-c5cc(C)ccc5C)cc4c3=O)n2)cc1
- RP-LC retention time: 878 s

SMILES: O=C1CC2(CCN(C(=O)C3CC(=O)N(c4ccc(Cl)cc4)C3)CC2)Oc2ccccc21 (stereo not drawn)
- RP-LC retention time: 831 s

SMILES: COc1cc(NC(=O)Nc2c(-c3cccnc3)[nH]c3ccccc23)cc(OC)c1
- RP-LC retention time: 679 s

SMILES: CCCn1ccc2oc(C)c(C(=O)N3CCN(c4ccc(OC)cc4)CC3)c2c1=O
- RP-LC retention time: 707 s

SMILES: COC(=O)C1=CN(c2ccc(OC)cc2)c2ccc(F)cc2S1(=O)=O
- RP-LC retention time: 804 s

SMILES: O=C(NCCc1csc(-c2ccc(F)cc2)n1)Oc1ccccc1
- RP-LC retention time: 944 s

SMILES: CCN(C(=O)C1CCN(S(=O)(=O)c2ccc3c(c2)sc(=O)n3CC)CC1)c1ccccc1
- RP-LC retention time: 942 s

SMILES: CCCS(=O)(=O)N1CCc2ccc(NC(=O)Oc3ccccc3)cc2C1
- RP-LC retention time: 878 s

SMILES: CCNC(=O)C1CCCN(c2nc3ncn(CC(=O)Nc4c(C)cccc4CC)c(=O)c3s2)C1 (stereo not drawn)
- RP-LC retention time: 703 s

SMILES: CC1CCN(c2cc(-c3nc(-c4ccccc4)no3)c3ccccc3n2)CC1
- RP-LC retention time: 1360 s

SMILES: C=CCN1C(=O)COc2ccc(-c3csc(NC(=O)c4ccc(OC)c(OC)c4)n3)cc21
- RP-LC retention time: 943 s

SMILES: COc1ccc(NC(=O)c2nc(C)oc2C)c(OC)c1
- RP-LC retention time: 913 s

SMILES: CCc1noc2nc(C)n(CC(=O)NC3CCCc4ccccc43)c(=O)c12 (stereo not drawn)
- RP-LC retention time: 867 s

SMILES: O=C(Nc1ccc([N+](=O)[O-])cc1O)Nc1ccccc1Br
- RP-LC retention time: 914 s

SMILES: O=C(C1CCN(S(=O)(=O)c2ccc(-c3noc(Cc4ccc(F)cc4)n3)cc2)CC1)N1CCCC1
- RP-LC retention time: 971 s

SMILES: CN1CCN(S(=O)(=O)c2ccc3nn(CCc4ccccc4)c(=O)n3c2)CC1
- RP-LC retention time: 627 s

SMILES: COC(=O)c1c(NCCN2CCCc3ccccc32)c2cc(F)ccc2[nH]c1=O
- RP-LC retention time: 952 s

SMILES: COC(=O)CC(=O)Nc1cc2c(cc1N1CCCC1)n(C)c(=O)n2C
- RP-LC retention time: 565 s

SMILES: O=C(COc1ccccc1)NCCSc1c[nH]c2ccccc12
- RP-LC retention time: 831 s

SMILES: O=C(Cn1c(=O)oc2cc(Cl)ccc21)N1CCN(c2ccccn2)CC1
- RP-LC retention time: 630 s

SMILES: Cc1cc(C)cc(C(=O)NC(Cc2ccccc2)c2nnc(N3CCSCC3)o2)c1 (stereo not drawn)
- RP-LC retention time: 918 s

SMILES: c1cc(CN2CCCCC2)ccc1CC1CCNCC1
- RP-LC retention time: 528 s

SMILES: CC(C)c1ccc(NC(=O)Cn2cccc2-c2nnc(C3CCC3)o2)cc1
- RP-LC retention time: 1060 s

SMILES: O=C(Nc1cccc(Cl)c1)N1CCN(Cc2nc3ccccc3o2)CC1
- RP-LC retention time: 728 s

SMILES: Cc1ccc(NC(=O)N2CCCC(C)(C(=O)NCc3ccccc3C)C2)cc1C (stereo not drawn)
- RP-LC retention time: 978 s
